# Measured values: patent US5441887A, “Rapid degradation of halogenated hydrocarbons by soluble methane monooxygenase” (Regents of the University of Minnesota, priority 1994, dated 1995)
# Tests used:
# [1] = test system: Methylosinus trichosporium OB3b; experiment: No-headspace (single phase) assay of TCE degradation by continuously cultured Mt OB3b; assay type: cell-based; conditions: for Rates: 0% methane, 10 min-15 min; for micromoles TCE removed · hr^-1 · g dry cells^-1: cells cultured with methane 45 ml/min, air 135 ml/min; for Micromoles TCE removed: culture 0.64 g cells/l
# Experimental: Each culture of Mt OB3b was added to 1.8 ml serum bottle prewarmed to 30° C. and sealed with an 11 mm teflon-lined rubber septa. For comparisons requiring similar initial dissolved oxygen levels, anaerobic make-up media (usually 0.6 ml) was added to the bottles first and then the bottles were sealed. Air-saturated 30° C. Higgins media prepared as in Example I was added via gas-tight syringe (1.0 ml), while 1 atm pressure was maintained by allowing air to bleed through a 25 gauge needle. Finally, culture was added (concentrated to give desired density) while remaining headspace-was bled out through the 25 gauge needle. TCE was added with a syringe at the bottom of the sealed bottle, with a syringe at top of the bottle removing equivalent volume of culture. The assay time course was started with TCE (substrate) addition. Incubation was performed at 30° C. with agitation at 200 rpm on a platform shaker.
# Assays were terminated by extraction at desired time points. The liquid-liquid extraction technique used 0.6 ml of pentane containing 1,2-dibromoethane as an internal standard added via gas-tight syringe to inverted assay bottle, while a second syringe with a needle below first needle level collected displaced solution. Partitioning was brought to equilibrium by centrifugation of bottles at 5000 rpm for 10 min. The organic layer was removed by gas-tight syringe and placed in a 1 ml serum bottle for chromatographic analysis. In some cases, dilution of sample or split injection was necessary. Electron-capture detection was preferred. The following gas chromatography operating parameters were used:
# The following Tests 1, 2 and 3 were conducted according to the no-headspaceassay procedure described generally above. […]
# In prewarmed (30° C.) 120 ml serum bottles, 1 ml of Mt OB3b cell suspension grown in a chemostat (A600 =1.460) were mixed with 9 mls of 30° C. Higgins media prepared as in Example I. One bottle was prepared by adding "spent" media from the chemostat (decant media after pelleting cells with centrifugation--10,000 rpm for 10 minutes) rather than fresh Higgins media. The bottles were sealed with 20 mm teflon-lined rubber septa, evacuated and refilled with air (0% methane). One bottle was heat-killed and used as a control.
# 1.76 ml of Mt OB3b cell suspension was added to sealed 1.8 ml serum bottles (25 gauge needle used to equilibrate pressure). 45 μl of 4 mM TCE stock were added to start the assay. Bottles were incubated at 30° C. with agitation on a shaker bath. Bottles were sacrificed at 2.5, 5.0, 10.0, 15.0 and 20.0 mins by displacing 0.6 ml aqueous solution with pentane containing 1 ppm 1,2-dibromoethane as an internal standard. Analysis was performed on a HP 5790A GC using ECD.
# [2] = test system: Methylosinus trichosporium OB3b; experiment: Two-phase headspace assay of TCE degradation by continuously cultured Mt OB3b; assay type: cell-based
# Experimental: Each culture of Mt OB3b was added in 2 ml quantities to 10 ml serum bottles. Bottles were sealed with 20 mm teflon-lined rubber septa. TCE was added to start the assay. Headspace accounted for 80% of total volume within bottles, but TCE concentration was added based on 2 ml aqueous phase. TCE resided principally in the headspace. All bottles were inverted in order to prevent possible TCE loss by trapping the compound in the headspace between the liquid phase and glass. Samples were incubated inverted at 30° C. with agitation (200 rpm on a platform shaker).
# Headspace incubations were analyzed by direct injection of headspace into a gas chromatograph. This method may be performed without sacrificing a sample. It is important to prepare sound calibration curves for quantitation. The best method for external standardization is to prepare samples as if running an assay and heat-killing at 80° C. for 10 mins prior to TCE addition. Samples were incubated for 30 mins under test conditions to allow adequate time for TCE to partition among the numerous phases (air, water, cell material, and the like). Headspace samples were injected into a gas chromatograph using either FID or ECD. Numerous TCE concentrations were used to obtain a sound standardization curve.
# Headspace assays of TCE degradation were conducted by adding bacterial cells from the continuous culture described in Example II or cells diluted with spent Higgins medium (2 mls) into assay vials (10 ml vials).
# Rates were calculated from peak heights of recorder tracings from a gas chromatograph equipped with an electron capture detector.
# Mt OB3b = experiment: TCE oxidation by Mt OB3b grown by conventional methods (shake flask); assay type: cell-based, Methylosinus trichosporium OB3b; conditions: initial TCE concentrations of one ppm or higher
# [3] = test system: methane-utilizing mixed culture; conditions: Fogel et al.; cited from earlier work
# methanotrophic bacteria = conditions: optimal conditions, prior reports; cited from earlier work
compound,measurement,setting,value
"ClC=C(Cl)Cl [TCE, 1,1,2-trichloroethene]",Rate of TCE-utilization (no headspace assay),"[1]; Test 1, culture turbidity A600 1.310",336 μmoles·hr^-1·g cells^-1
same,Rate of TCE-utilization (no headspace assay),"[1]; Test 2, culture turbidity A600 1.410",1070 μmoles·hr^-1·g cells^-1
same,Rate of TCE-utilization (no headspace assay),"[1]; Test 3, culture turbidity A600 1.460",2400 μmoles·hr^-1·g cells^-1
same,Rate when most rapid oxidation of TCE occurred,"[1]; Test 3, times of most rapid oxidation",approximately 3500 μmoles/h^-1.g cells^-1
same,Rates,"[1]; Test 3 Run 2, 1/10 dilution in Higgins media",3200 μmoles·h^-1·g cells^-1
same,Rates,"[1]; Test 3 Run 3, 1/10 dilution in spent Higgins media from chemostat",3960 μmoles·h^-1·g cells^-1
same,micromoles TCE removed · hr^-1 · g dry cells^-1,[1]; concentration of TCE 10 μM,829 micromoles TCE removed·hr^-1·g
same,micromoles TCE removed · hr^-1 · g dry cells^-1,[1]; concentration of TCE 25 μM,1104 micromoles TCE removed·hr^-1·g
same,micromoles TCE removed · hr^-1 · g dry cells^-1,[1]; concentration of TCE 50 μM,1194 micromoles TCE removed·hr^-1·g
same,Micromoles TCE removed,"[1]; concentration of TCE 40 μm, 5-10 min.",2.96 µmol/min
same,Micromoles TCE removed,"[1]; concentration of TCE 80 μm, 5-10 min.",5.69 µmol/min
same,Micromoles TCE removed,"[1]; concentration of TCE 80 μm, 10-15 min.",3.03 µmol/min
same,Micromoles TCE removed,"[1]; concentration of TCE 320 μm, 5-10 min.",15.54 µmol/min
same,Micromoles TCE removed,"[1]; concentration of TCE 320 μm, 10-15 min.",10.2 µmol/min
same,Micromoles TCE removed,"[1]; concentration of TCE 640 μm, 10-25 min.",10.48 µmol/min
same,Km,"[1]; concluded from Table VIII and other experiments, read-out: Ks for TCE oxidation",~5 µM
same,Rate of TCE oxidation,"[1]; methane added 5% saturation, cell density approx. 0.16 g/l, nominal initial TCE 80 μM",3350 μmoles·hr^-1·g cells^-1
same,Rate of TCE oxidation,"[1]; methane added 10% saturation, cell density approx. 0.16 g/l, nominal initial TCE 80 μM",3000 μmoles·hr^-1·g cells^-1
same,Rate of TCE oxidation,"[1]; methane added 20% saturation, cell density approx. 0.16 g/l, nominal initial TCE 80 μM",875 μmoles·hr^-1·g cells^-1
same,Rate of TCE oxidation,"[1]; methane added 50% saturation, cell density approx. 0.16 g/l, nominal initial TCE 80 μM",110 μmoles·hr^-1·g cells^-1
same,Rate of TCE oxidation,"[1]; methane added: none, cell density approx. 0.16 g/l, nominal initial TCE 80 μM",660 μmoles·hr^-1·g cells^-1
same,Rate of TCE oxidation,"[1]; some cell batches, without any methane present",approximately 4000 micro-moles.hr^-1.g cells^-1
same,Rate at which cells are believed able to oxidize TCE,"[1]; under optimal conditions, belief, extrapolated","10,000 μmoles.h^-1.g cells^-1"
same,"Rate, micromoles TCE oxidized · g cells^-1 · hr^-1","[2]; cell density .070 g·l^-1, initial TCE 22 micromolar",808 micromoles TCE oxidized·g cell
same,"Rate, micromoles TCE oxidized · g cells^-1 · hr^-1","[2]; cell density .173 g·l^-1, initial TCE 23 micromolar",461 micromoles TCE oxidized·g cell
same,"Rate, micromoles TCE oxidized · g cells^-1 · hr^-1","[2]; cell density .347 g·l^-1, initial TCE 22 micromolar",465 micromoles TCE oxidized·g cell
same,"Rate, micromoles TCE oxidized · g cells^-1 · hr^-1","[2]; cell density .521 g·l^-1, initial TCE 22 micromolar",308 micromoles TCE oxidized·g cell
same,"Rate, micromoles TCE oxidized · g cells^-1 · hr^-1","[2]; cell density .695 g·l^-1, initial TCE 22 micromolar",281 micromoles TCE oxidized·g cell
same,Rate of TCE degradation,"[2]; low cell densities, initial TCE 80 μM, culture cell mass 0.825 g/l (FIG. 1)",1200 micromoles TCE removed.hr^-1.g cells^-1
same,Removal at which oxidation of TCE ceased,Mt OB3b,about 50%
same,Rate of TCE degradation,[3],approximately 2.5 μmoles per hour per gram of cells
same,Rates of TCE degradation reported,methanotrophic bacteria,exceed 100 μmoles per hour per gram of cells
